Measured values as given in patent US7563862B2, “Neural regeneration peptides and methods for their use in treatment of brain damage” (Neuren Pharmaceuticals Limited, priority 2001, dated 2009).
Ends that are not written are not given here.

Key:
neural stem cells = experiment: neural stem cell differentiation assay, neuronal differentiation and axonal outgrowth; type: cell-based, mouse
Protocol: Neural stem cells were derived from E15 C3H mice forebrain and cultured as neurospheres in the presence of 20 ng/ml EGF and 10 ng/ml bFGF as described in Gritti et al. (2001). Briefly, timed pregnant mice were sacrificed and the embryos removed. Under sterile conditions the brains were removed and the forebrains dissected. The tissue was dissociated by trituration and pelleted by 75 g centrifugation for 10 minutes and the cells seeded in non-coated tissue culture flasks in NSA medium with growth factors. For passaging neurospheres were triturated and seeded as single cells.
Upon reaching a sufficient size, neurospheres were dissociated by trituration and plated at a density of 200,000 cells per well on laminin-coated 13 mm diameter coverslips that had been placed in Nunc 24 well plates. The plating medium was a 1:1 mixture of DMEM/F12 supplemented with N2 and Neurobasal supplemented with B27 and 2 mM glutamine. To enhance survival after plating the medium contained 2 ng/ml bFGF. After 24 h the medium was replaced with a neuronal differentiation-promoting medium (1:3 mixture of DMEM/F12 supplemented with N2 and Neurobasal supplemented with B27 and 2 mM glutamine) and except for the controls the test compound or IGF-1 was added simultaneously. The medium with fresh compound was exchanged every other day. Seven days after plating the differentiating cells were incubated for 20 minutes in differentiation medium containing 100 ng/ml Syto21 to label the nuclei of viable cells. Subsequently, they were fixed with 4% paraformaldehyde and immunostained with a mouse anti-βIII tubulin antibody and a goat anti-mouse Cy3-coupled secondary antibody.
After staining the coverslips were removed from the tissue culture plate and mounted on […], using Immunofluore fluorescent mounting medium. To analyse the percentage of neurons of total cells, with a Zeiss axiophot microscope, equipped with Axoivision software, at 20× magnification images of two random fields per well were taken in the red (tubulin stained neurons) and green (Syto21 stained nuclei) fluorescent channel. Neurons and nuclei per field were counted and the neuronal percentage of total cell number determined.

[1] = tested on: mouse forebrain neural stem cells; experiment: neurosphere expansion assay, shift from symmetric to asymmetric division of neural stem cells; type: cell-based; details: nanomolar concentrations
Text: To determine whether NRPs could induce a shift of cells within neurospheres from symmetric (two stem cells, both stem cells) to asymmetric division of neural stem cells (1 stem cell, 1 neuronal progenitor or neuroblast cell), as has been described for erythropoietin (EPO) by Shingo et al. (2001), neurospheres were dissociated by trituration and seeded for expansion at a density of 200,000 cells/well in 6 well plates in NSA medium with EGF only, EGF plus varying concentrations of an NRP, or EGF plus 10 U/ml EPO. One half of the medium with fresh NRP compound was exchanged every other day. After 7 days the cells from the neurospheres were plated. In the presence of EGF, cells retain symmetric cell division. With the removal of EGF, cells begin to differentiate (asymmetric cell division). Subsequently, the cells were subjected to a differentiation assay as described below, with the exception that bFGF was not added to the plating medium for the initial 24 h and differentiation for 7 days was allowed in control medium without NRPs or other compounds. In cells that had never been exposed to an NRP, the numbers of neuroblast cells were lower than in cells that had been exposed to an NRP or EPO. Therefore, NRPs can increase the differentiation of undifferentiated stem cells into neuroblast cells.

[2] = tested on: un-injured cerebellar microexplants; experiment: proliferation induction without injury, cerebellar microexplants; type: cell-based, rat
Protocol: FIG. 17 depicts results of proliferation induction without injury using NRP-2 segment KG (SEQ ID NO: 18) and rat NRP-1 (SEQ ID NO: 2). Peptides were administered 24hrs after start of cultivation to decrease interference in the assay due to initial neuronal survival or adherence effects. The cultures were fixed after 3 days in vitro. There was neuronal proliferation seen at 300 μM of NRP-2 segment KG (SEQ ID NO: 18).
Within the applied proliferation assay rat NRP-1 (SEQ ID NO:2) and NRP-2KS (SEQ ID NO:23) were tested for neuronal proliferation inducing activity (see FIG. 19). In order to discriminate proliferation from increased survival and cellular adhesion properties, NRP-2 KS (SEQ ID NO:23) was administered 24 hrs after the start of cultivation. Rat NRP-1(SEQ ID NO:2) had specific effects on neuronal proliferation, (see FIGS. 7, 9 and 10). Neuronal proliferation induced by NRP-2KS (SEQ ID NO:23) occurred within a range of about 0.3-30 nM using un-injured cerebellar microexplants (verified by counting cells displaying neurite outgrowth).

For “SEPEARRAPGRKGGVVCASLAADW-NH2 [NRP-7 segment SW, 24-mer form of mouse NRP-7]”, the “maximum increase in beta-III-tubulin-positive neurons” value (neural stem cells; 10 pM, 7 days differentiation) was 2 fold and the “axonal outgrowth-promoting activity” value (neural stem cells; 7 days differentiation) was “maximum activity for an increase in axonal length growth lies in the upper nanomolar range”.

With “KDPEARRAPGSLHPCLAAS-NH2 [NRP-2 segment KS, 19-mer fragment of NRP-2]” the “maximum increase in beta-III-tubulin-positive neurons” value (neural stem cells; 1 0nM, 7 days differentiation) was 2 fold, the “proliferation rate during differentiation of NSC” value (neural stem cells; together with BrdU for 24 hrs) was “an increase in the proliferation rate” and the “production of neuronal progenitors” value [1] was “promoted the production of neuronal progenitors at the expense of multipotent stem cells”. The “increased neuronal cell proliferation, greater than vehicle-treated controls” value ([2]; 300 μM) was 117.5% and the “concentration range of induced neuronal proliferation” value ([2]; peptide 24 hrs after start of cultivation) was 0.3 to 30 nM.

“NRP-1: rat 16 amino acid neural regeneration peptide purified from hippocampal OTC supernatant, Tyr Asp Pro Glu ... Cys His-NH2 (YDPEAASAPGSGNPCH-NH2)” was tested, and the “concentration of greatest effect on neuronal proliferation” value [2] was 3 nM and the “up regulation of neuronal cell proliferation” value ([2]; 3 nM) was 81.2%.
